Measurements published in patent publication US6420416B2, “Method of treating epilepsy” (Daiichi Pharmaceutical Co., Ltd., priority 2000, dated 2002).

Test system: rats subjected to a central fluid percussion injury
Assay: Morris water maze after central fluid percussion injury (traumatic brain injury model)
Type: in vivo, rat
Experimental: As shown in the graph, administration of nefiracetam at 3 mg/kg and 9 mg/kg were tested against a control group treated only with the pharmacological carrier ([…]). The rats were subjected to a central fluid percussion injury, which is a typical animal model for traumatic brain injury. Beginning one day after the injury, the rats were subjected to daily oral drug administrations at the 3 and 9 mg/kg dosage levels. The administration solutions contained the nefiracetam in […] at a concentration sufficient to provide the required dosage level in a single 1 ml/kg dosage of solution. The rats were then tested in the Morris water maze on days 11-15 after injury. On the days that the rats were tested, the drug was administered 15 minutes prior to testing. […] The improvement seen at the 9 mg/kg dosage correlates to a reduction in the cognitive deficit by 55% compared to the control.

Cc1cccc(C)c1NC(=O)CN1CCCC1=O [nefiracetam, N-(2,6-dimethyl-phenyl)-2(2-oxo-1-pyrrolidinyl)acetamide]
effectiveness in the water maze (3 mg/kg daily oral, days 11-15 after injury): not significantly effective
reduction in the cognitive deficit compared to the control (9 mg/kg daily oral from one day after injury, Morris water maze on days 11-15 after injury, drug 15 minutes prior to testing): 55%
improvement in brain function as measured by performance in the water maze (9 mg/kg daily oral, compared to the control and the 3 mg/kg dosage level, days 11-15 after injury): significant improvement
